According to paper PMC11189555, “Aryl amino acetamides prevent Plasmodium falciparum ring development via targeting the lipid-transfer protein PfSTART1” (Nature Communications, 2024):
pEC50: −log10 of the molar value. “And” between values parts separate entries of the source, which are not always exact repeats. Equal values may be shown once. Read-outs that look alike come from different tables or passages of the source.

Tested on: 3D7 P. falciparum parasites
Assay: Growth inhibition assay (72 h, LDH activity)
Format: cell-based, Plasmodium falciparum
Settings: for inhibition / pEC50: Plasmodium falciparum; for inhibition: 3D7, 3D7, read-out: NORMALISED (growth inhibition, LDH absorbance)
Procedure: Parasite growth assays with inhibitory compounds were performed as per[11] and are fully described in the Supplementary Information. […]
Growth inhibition assays. Synchronised ring-stage parasites (0.3-0.6% parasitemia, 2% haematocrit) were grown for 72 h in a serial-dilution of the compound under […]
and compound 4. Note that M-833 was first purchased from MolPort (MolPort -002-267-916) then made in-house at WEHI: the differences observed in EC50s across experiments are attributed to the different batches of M -833. For some experiments, 0, 0.25 or 2.5 mM of glucosamine (GlcN) was also added. Experiments were set up in technical duplicates or triplicates. Following a freeze -thaw cycle, lactate dehydrogenase (LDH) activity was assessed as an indicator of parasite growt h 5. 30 μL of parasite culture was incubated for 30 min in the dark with 75 μL Malstat mixture (0.1 M Tris pH 9.0, 20 g/L lactic acid, pH 7.5, 0.2% Triton-X100, 0.5 g/L acetylpyridine adenine dinucleotide (APAD, Sigma), 200 μg/mL nitroblue tetrazolium (NBT; Sigma), 1 μg/mL phenozine ethosulfate (PES; Sigma)). Absorbance was then measured at 650 nm, transformed using the formula below, plotted against the logarithm of the concentrations, and a non-linear regression (log(inhibitor) vs. response, variable slope) was calculated using GraphPad Prism to assess the half-inhibitory […]
Growth inhibition % = (1 − average(sample)− average(uRBC)) ∗ 100 […]
The DMSO samples were also used to assess growth of parasite in the presence of 0.25 and 2.5 mM GlcN (normalised by DMSO in 0 mM GlcN). […]

CC(C)(Nc1ccc(Cl)c(S(=O)(=O)N2CCOCC2)c1)C(=O)Nc1ccc(F)c(Cl)c1 [W-991]
NORMALISED (growth inhibition, LDH absorbance) (3D7, 2.5 mM GlcN, dilution point 5 of 10 from starting concentration 100 nM): 58.1932 | NORMALISED (growth inhibition, LDH absorbance) (3D7, 2.5 mM GlcN, dilution point 6 of 10 from starting concentration 100 nM): 27.2129 | NORMALISED (growth inhibition, LDH absorbance) (3D7, 2.5 mM GlcN, dilution point 8 of 10 from starting concentration 100 nM): 5.32 and 8.1730 | (av-uRBC) / (DMSO-uRBC) x100 (3D7, conc. 0.0762079 nM, Biological replicate 1 (2021-10-25)): 91.3585 | (av-uRBC) / (DMSO-uRBC) x100 (3D7, conc. 0.0762079 nM, Biological replicate 2 (2021-11-03)): 90.9909 | (av-uRBC) / (DMSO-uRBC) x100 (3D7, conc. 0.0762079 nM, Biological replicate 3 (2021-11-11)): 91.0985 | (av-uRBC) / (DMSO-uRBC) x100 (3D7, conc. 0.228624 nM, Biological replicate 1 (2021-10-25)): 79.3619 | (av-uRBC) / (DMSO-uRBC) x100 (3D7, conc. 0.228624 nM, Biological replicate 2 (2021-11-03)): 81.2617 | (av-uRBC) / (DMSO-uRBC) x100 (3D7, conc. 0.228624 nM, Biological replicate 3 (2021-11-11)): 73.154 | (av-uRBC) / (DMSO-uRBC) x100 (3D7, conc. 0.685871 nM, Biological replicate 1 (2021-10-25)): 42.85 | (av-uRBC) / (DMSO-uRBC) x100 (3D7, conc. 0.685871 nM, Biological replicate 2 (2021-11-03)): 72.8867 | (av-uRBC) / (DMSO-uRBC) x100 (3D7, conc. 0.685871 nM, Biological replicate 3 (2021-11-11)): 42.2112 | (av-uRBC) / (DMSO-uRBC) x100 (3D7, conc. 2.05761 nM, Biological replicate 1 (2021-10-25)): 12.3757 | (av-uRBC) / (DMSO-uRBC) x100 (3D7, conc. 2.05761 nM, Biological replicate 2 (2021-11-03)): 18.386 | (av-uRBC) / (DMSO-uRBC) x100 (3D7, conc. 2.05761 nM, Biological replicate 3 (2021-11-11)): 9.397 | (av-uRBC) / (DMSO-uRBC) x100 (3D7, conc. 6.17284 nM, Biological replicate 1 (2021-10-25)): 9.357 | (av-uRBC) / (DMSO-uRBC) x100 (3D7, conc. 6.17284 nM, Biological replicate 2 (2021-11-03)): 11.686 | (av-uRBC) / (DMSO-uRBC) x100 (3D7, conc. 6.17284 nM, Biological replicate 3 (2021-11-11)): 6.494 | (av-uRBC) / (DMSO-uRBC) x100 (3D7, conc. 18.5185 nM, Biological replicate 1 (2021-10-25)): 9.8 | (av-uRBC) / (DMSO-uRBC) x100 (3D7, conc. 18.5185 nM, Biological replicate 2 (2021-11-03)): 10.8954 | (av-uRBC) / (DMSO-uRBC) x100 (3D7, conc. 18.5185 nM, Biological replicate 3 (2021-11-11)): 6.2108 | (av-uRBC) / (DMSO-uRBC) x100 (3D7, conc. 55.5556 nM, Biological replicate 1 (2021-10-25)): 9.035 | (av-uRBC) / (DMSO-uRBC) x100 (3D7, conc. 55.5556 nM, Biological replicate 2 (2021-11-03)): 11.005 | (av-uRBC) / (DMSO-uRBC) x100 (3D7, conc. 55.5556 nM, Biological replicate 3 (2021-11-11)): 5.108 | (av-uRBC) / (DMSO-uRBC) x100 (3D7, conc. 166.667 nM, Biological replicate 1 (2021-10-25)): 9.2782 | (av-uRBC) / (DMSO-uRBC) x100 (3D7, conc. 166.667 nM, Biological replicate 2 (2021-11-03)): 9.854 | (av-uRBC) / (DMSO-uRBC) x100 (3D7, conc. 166.667 nM, Biological replicate 3 (2021-11-11)): 4.764 | (av-uRBC) / (DMSO-uRBC) x100 (3D7, conc. 500 nM, Biological replicate 1 (2021-10-25)): 10.7733 | (av-uRBC) / (DMSO-uRBC) x100 (3D7, conc. 500 nM, Biological replicate 2 (2021-11-03)): 10.7389 | (av-uRBC) / (DMSO-uRBC) x100 (3D7, conc. 500 nM, Biological replicate 3 (2021-11-11)): 3.985 | improvement in parasite activity on replacing the aryl oxy of compound 3 with an amino group (EC50 based): 20 fold | inhibition (0.25 mM GlcN, dilution point 1 of 10, starting concentration 100 nM): 94.1% | inhibition (0.25 mM GlcN, dilution point 2 of 10 from starting concentration 100 nM): 94.3% | inhibition (0.25 mM GlcN, dilution point 3 of 10 from starting concentration 100 nM): 95.3% | inhibition (0.25 mM GlcN, dilution point 4 of 10 from starting concentration 100 nM): 91.5% | inhibition (2.5 mM GlcN, dilution point 1 of 10, starting concentration 100 nM): 89.4% | inhibition (2.5 mM GlcN, dilution point 2 of 10 from starting concentration 100 nM): 91.3% | inhibition (2.5 mM GlcN, dilution point 3 of 10 from starting concentration 100 nM): 88.4% | inhibition (2.5 mM GlcN, dilution point 4 of 10 from starting concentration 100 nM): 86.4% | inhibition (2.5 mM GlcN, dilution point 5 of 10 from starting concentration 100 nM): 65.7% | inhibition (2.5 mM GlcN, dilution point 6 of 10 from starting concentration 100 nM): 40.2% | pEC50 (3D7, 72 h, Supplementary Table 1, 3D7, 72 h, read-out: EC50): 9.14 | pEC50 (3D7, Fig 4C, 3D7, 0 mM GlcN, n = 3, read-out: EC50 W-991 (95% confidence interval)): 9.03 | pEC50 (3D7, Fig 4C, 3D7, 0.25 mM GlcN, n = 3, read-out: EC50 W-991 (95% confidence interval)): 9.04 | pEC50 (3D7, Fig 4C, 3D7, 2.5 mM GlcN, n = 3, read-out: EC50 W-991 (95% confidence interval)): 9.10 | pEC50 (3D7, text on structure activity relationship (Fig 4A), read-out: EC50, antiparasitic activity): 8.15 | effect of GlcN addition on EC50 (control 3D7, Fig 4C): did not change the EC50
